In patent US20100247461A1, “ANTI-INFLAMMATORY COMPLEXES” (Signum Biosciences, Inc., priority 2009, published 2010):
In brackets after ≈: the same amount, converted by molar mass.

Columns and labels:
[1] = test system: MPO (myeloperoxidase), neutrophil marker; assay: TPA mouse ear model of inflammation - MPO inhibition (dermal neutrophil infiltration); type: in vivo; conditions: for % MPO Inhibition in the Mouse Ear Inflammation Assay (4% concentration): topical, 24 hours
Method: Briefly, we homogenized 6mm biopsy punches taken from both compound-treated ears as well as TPA-treated and non-treated control groups. We quantitated the levels of MPO by a colorimetric reaction that was measured spectrophotometrically. The percent inhibition of neutrophil infiltration by each complex was determined by comparing the average MPO levels in the presence and absence of these compounds. The calculation for percent inhibition of MPO was determined similar to that as described for calculating the percent edema inhibition, see the Edema Inhibition protocol, supra.

[2] = test system: TPA-treated mouse ears (erythema, Δa* redness); assay: TPA mouse ear model of inflammation - erythema inhibition; type: in vivo; conditions: topical, 24 hours
Method: The protocol for measuring erythema inhibition by provided complexes was developed in-house by utilizing the CR-400 chroma meter from Konica Minolta (2). This instrument was used to measure the Δa*redness value from 6 mm biopsy punches taken 24 hours post TPA/compound treatment as described in the edema inhibition section above. […] These values were corrected for the Δa* value of non TPA-treated mouse ears of littermate controls.

[3] = test system: MPO activity (neutrophil infiltration) in P. acnes-injected ear; assay: P. acnes-induced mouse ear model of inflammation - MPO endpoint; type: in vivo
Method: The methods for a model of P. acnes-inflammation are described elsewhere (Nakatsuji et al., J Invest Dermatol, 2008, 128: 2451-2457).
The protocol for inducing inflammation using P. acnes bacterial challenge on the mouse ear was slightly modified from the method described previously (Natatsuji et al., 2008). Briefly, Swiss Webster (ICR, 6-8 weeks old) mouse ears were injected with living P. acnes culture intradermally. An amount of 20 μl aliquots of living P. acnes (ATCC 6919, 3×10^6 CFU) suspended in PBS was intradermally injected in the central portion of the ear. As a control, 20 μl of PBS was injected into control animals.
To assay for inhibition of dermal neutrophil infiltration by AFC complexes, a standard method was used (see Bradley et al., J Invest Dermatol, 1982,78: 206-209; Young et al., J Invest Dermatol, 1983, 80: 48-52; De Young et al, Agents Actions, 1989, 26: 335-41; and Rao et al., Inflammation, 1993, 17: 723-41). Briefly, 6mm biopsy punches taken from both compound-treated ears as well as non-treated control ears were homogenized in 400 μl of 0.5% hexadecyltrimethylammonium bromide in 50 mM potassium phosphate buffer (pH 6.0) using the Fast Prep 24 (MP Biomedicals, Solon, Ohio). Supernatants were assayed for MPO activity using a model EL 340 96-well plate reader (BioTek Instruments, Winooski, Vt.). The percent inhibition of neutrophil infiltration by each AFC complex was determined by comparing the average MPO levels in the presence and absence of these compounds. The percent inhibition of MPO was determined by taking the average MPO activity of compound-treated ears and dividing it by the average MPO activity of 12 ears that only received the P. acnes challenge and subtracting that value from 100%. These values were corrected for the MPO activity of normal, non P. acnes-treated mouse ears of littermate controls. Summary of MPO activity ranges determined from an MPO activity assay for dexamethasone (administered at a dose of 1.6 mg/20 μL), clobetasol (administered at a dose of 0.1 mg/20 μL), salicylic acid (administered at a dose of 0.4 mg/20 μL), AFC (administered at a dose of 0.4 mg/20 μL), AFC-Strontium complex (administered at a dose of 0.4 mg/20 μL) and SFC-disodium are presented in Table 4. “+” indicates a range of 0-20%, “++” indicates a range of 20-40%, and “+++” indicates >40% inhibition.

[4] = test system: TPA-treated mouse ears (edema, ear thickness); assay: TPA mouse ear model of inflammation - edema inhibition; type: in vivo; conditions: topical, 24 hours
[5] = test system: TPA-treated mouse ears (edema, ear thickness); assay: as above; type: in vivo; conditions: TPA-treated mouse ear, at the dose tested; AFC oil n=1, data not shown
Method: In brief, mice were sedated and their ears were treated with 1.2 μg/20 uL TPA (i.e., tetradecanoylphorbol-13-acetate). After 5 minutes, we dosed these TPA-treated ears with a single 8 μg/20 μL dose, a 2 μg/20 μL dose, or both doses, of provided complexes. After 24 hours, the mice were sacrificed and edema was measured by taking micrometer readings of each ear. […] These values were corrected for the thickness of normal, non TPA-treated mouse ears of littermate controls.

[6] = test system: Propionibacterium acnes (strain ATCC 6919); assay: Inhibition of Propionibacterium acnes growth; type: cell-based; conditions: 72 hours, anaerobic, absorbance 600 nm, 1×10^6 CFU per mL
Method: The assay for the inhibition of growth of Propionibacterium acnes bacteria is described elsewhere (Nakatsuji et al., J Invest Dermatol, 2009, 129: 2480-2488). In brief, the strain ATCC 6919 of P. acnes (American Type Culture Collection, Manassas, Va.) was cultured on Brucella agar (R01254, Remel, Lenexa, Kans.) supplemented with 5% (v/v) defibrinated sheep blood, vitamin K (5 mg/ml, Remel, Lenexa, Kans.), and hemin (50 mg/ml, Remel, Lenexa, Kans.), under an anaerobic condition using Gas-Pak (BD, Sparks, Md.) at 37° C. A single colony was inoculated in Reinforced Clostridium Medium (Oxford, Hampshire, England) and cultured at 37° C. under the anaerobic condition. Each of the inventive complexes—AFC-Sr, AFC-Ag and AFC-Zn as well as AFC were dissolved in 100% (v/v) DMSO. Samples of each inventive complex, AFC and a solution of benzoyl peroxide (“BPO”) were then each incubated with an inoculum of P. acnes at a concentration of 1×10^6 CFU per mL in Reinforced Clostridium Medium in a 96-well microplate (100 μL per well) under anaerobic conditions for 72 hours. Samples of each were tested at final concentrations per well of 0.25 μg/mL, 0.5 μg/mL, 1.0 μg/mL, 1.95 μg/mL, 3.9 μg/mL, 7.8 μg/mL, 15.625 μg/mL, 31.25 μg/mL, 62.5 μg/mL, 125 μg/mL, 250μg/mL, and 500 μg/mL. A control well received only 5% (v /v) of DMSO in place of a sample of an inventive complex. After 72 hours incubation under anaerobic conditions, the P. acnes cultures in the 96-well microplate were mixed well and then absorbance readings at 600 nm were taken to determine bacterial growth. […] Growth curves of P. acnes determined for BPO, AFC, AFC-Sr, AFC-Ag and AFC-Zn are depicted in FIG. 3.

[7] = test system: mouse skin reepithelialization; assay: Mouse wound healing model - skin reepithelialization; type: in vivo
From the text: The healing of wounded skin is mediated by epidermal reepithelialization that requires keratinocyte migration. Glucocorticoids are known to inhibit wound healing (Ehrlich et al., Proc Soc Exp Biol Med, 1971, 137: 936-938; Leibovich et al., Am J Pathol, 1975, 78, 71-100). […] The methods for studying mouse skin reepithelialization using both partial and full thickness mouse wound healing models have been described elsewhere (Kim et al. Wound Repair Regen, 2001, 9: 386-390). In brief, for partial thickness wounds, a 3 mm-diameter circle of epidermis is removed from the ventral auricle. The resulting wound is cleansed and dressed with an occlusive polyurethane film. The mouse ears are excised on days 3, 5, 8, and 11 post-operation and fixed in 10% buffered formalin. Following day 8 post-operation, sampling of treated mice is performed to determine completion of healing. For full thickness wounds, mice heads are shaved and depilated prior to excising the skin. The cleaned and dressed wounds are harvested and fixed at days 3, 5, 8 and 10 and fixed in 10% buffered formalin.

Molecule	% MPO Inhibition in the Mouse Ear Inflammation Assay (4% concentration) ([1]; TPA-treated mouse ear)	% Erythema Inhibition in the Mouse Ear Inflammation Assay (4% concentration) [2]	% Edema Inhibition in the Mouse Ear Inflammation Assay (4% concentration) [4]	also measured
CC(C)=CCC/C(C)=C/CC/C(C)=C/CSC[C@H](NC(=O)CCC(=O)[O-])C(=O)[O-].[Na+].[Na+] [SFC-disodium]	++ (“++” indicates a range of 40-80%)	++ (“++” indicates a range of 20-40%)	++ (“++” indicates a range of 20-50%)	MPO % Inhibition ([3]; dose not given): +++ (“+++” indicates >40% inhibition)
C[C@@H]1C[C@H]2[C@@H]3CCC4=CC(=O)C=C[C@]4(C)[C@@]3(F)[C@@H](O)C[C@]2(C)[C@@]1(O)C(=O)CO [Dexamethasone]				MPO % Inhibition ([3]; dose of 1.6 mg/20 μL): +++ (“+++” indicates >40% inhibition)
Calcium 4-((R)-1-carboxy-2-((2E,6E)-3,7,11-trimethyldodeca-2,6,10-trienylthio)ethylamino)-4-oxobutanoate [SFC-calcium complex]	++ (“++” indicates a range of 40-80%)	+++ (“+++” indicates >40% inhibition of erythema)	+++ (“+++” indicates >50% inhibition of edema)	
O=C(O)c1ccccc1O [Salicylic Acid]				MPO % Inhibition ([3]; dose of 0.4 mg/20 μL): ++ (“++” indicates a range of 20-40%)
CC(=O)N[C@@H](CSC/C=C(\C)CC/C=C(\C)CCC=C(C)C)C(=O)O [AFC-Glucosamine complex, Glucosamine (R)-2-acetamido-3-((2E,6E)-3,7,11-trimethyldodeca-2,6,10-trienylthio)propanoate]	++ (“++” indicates a range of 40-80%)		+++ (“+++” indicates >50% inhibition of edema)	inhibition of neutrophil infiltration ([1]; TPA-treated mouse ear, at the dose tested, AFC oil n=1, data not shown): 73.15±6.0%; inhibition of edema [5]: 70.84±5.25%
CC(C)=CCC/C(C)=C/CC/C(C)=C/CSC[C@H](NC(=O)CCC(=O)[O-])C(=O)O.[Na+] [SFC-monosodium]	++ (“++” indicates a range of 40-80%)	++ (“++” indicates a range of 20-40%)	++ (“++” indicates a range of 20-50%)	
Zinc (R)-2-acetamido-3-((2E,6E)-3,7,11-trimethyldodeca-2,6,10-trienylthio)propanoate [AFC-Zinc complex]				IC50 (inhibition of P. acnes growth) [6]: 9.2 µg/mL
C[C@H]1C[C@H]2[C@@H]3CCC4=CC(=O)C=C[C@]4(C)[C@@]3(F)[C@@H](O)C[C@]2(C)[C@@]1(O)C(=O)CCl [Clobetasol]				effect on mouse skin reepithelialization of wounds [7]: significantly delayed; MPO % Inhibition ([3]; dose of 0.1 mg/20 μL): +++ (“+++” indicates >40% inhibition)
[Cl-].[Cl-].[Sr+2] [Strontium chloride, reference compound]		+ (“+”indicates a range of 0-20%)	+ (“+”indicates a range of 0-20%)	biological activity compared with AFC-strontium complex (FIG. 1) ([1]; FIG. 1, follows the MPO discussion of b517, assay not named): no significant activity
Strontium (R)-2-amino-3-((2E,6E)-3,7,11-trimethyldodeca-2,6,10-trienylthio)propanoate [Farnesyl Cysteine-Strontium complex]		++ (“++” indicates a range of 20-40%)	++ (“++” indicates a range of 20-50%)	
O=C(OOC(=O)c1ccccc1)c1ccccc1 [BPO, benzoyl peroxide, reference compound]				IC50 ([6]; Cutibacterium acnes, ATCC6919, 72 h, read-out: IC50 (inhibition of P. acnes growth)): 161 µg/mL (≈ 665 µM)
CC(C)=CCC/C(C)=C/CC/C(C)=C/CSC[C@H](NC(=O)CCC(=O)O)C(=O)O [SFC, N-succinyl-S-farnesyl-L-cysteine]	+++ (“+++” indicates >80% inhibition of MPO)	+ (“+”indicates a range of 0-20%)	+++ (“+++” indicates >50% inhibition of edema)	
